The test system of this test is HOP-92. Kind of test: Growth inhibition of human HOP-92 cells assessed as cell growth at 10 uM incubated for 48 hrs by sulforhodamine B assay relative to control. The format is functional. The following applies: read-out: Activity. For orientation: In SRB staining, fixed cells bind dye roughly in proportion to their protein.

Turning to `CC(=O)Nc1cc(CO)cc(NC(=O)c2ccccc2)c1`, the growth at 10 µM is 96.3%.

Source of the values: ChEMBL document CHEMBL4715697, “Synthesis and biological activity of benzamide DNA minor groove binders” (2016).
